Article PMC4772718 (Bioconjugate chemistry, 2015)

Molecular target: Bruton's tyrosine kinase (Btk) (Homo sapiens, UniProt Q06187)
Experiment: IC50
Assay type: biochemical

Chain of Bruton's tyrosine kinase (Btk) (Q06187 2-659): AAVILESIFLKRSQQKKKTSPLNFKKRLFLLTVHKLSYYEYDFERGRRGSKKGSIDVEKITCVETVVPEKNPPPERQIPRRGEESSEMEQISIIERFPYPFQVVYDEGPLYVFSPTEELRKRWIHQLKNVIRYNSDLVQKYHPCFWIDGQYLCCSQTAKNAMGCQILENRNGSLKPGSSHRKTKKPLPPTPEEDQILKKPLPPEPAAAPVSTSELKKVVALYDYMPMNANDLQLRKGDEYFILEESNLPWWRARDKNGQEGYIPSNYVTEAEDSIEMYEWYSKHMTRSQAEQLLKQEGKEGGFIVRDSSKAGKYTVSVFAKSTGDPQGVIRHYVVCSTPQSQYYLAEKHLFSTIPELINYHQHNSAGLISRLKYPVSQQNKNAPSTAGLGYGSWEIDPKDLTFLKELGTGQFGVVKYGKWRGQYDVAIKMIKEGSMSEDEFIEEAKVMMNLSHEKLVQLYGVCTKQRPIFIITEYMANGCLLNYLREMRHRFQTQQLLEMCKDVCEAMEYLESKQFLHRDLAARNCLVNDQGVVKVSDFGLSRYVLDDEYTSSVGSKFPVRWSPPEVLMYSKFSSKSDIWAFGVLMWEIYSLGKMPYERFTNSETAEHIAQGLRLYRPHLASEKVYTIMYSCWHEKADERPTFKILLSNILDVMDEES

IC50: 284 nM
Substance: AVL-292-SiR-COOH
